Measurements published in patent publication US10479795B2 (Incyte Corporation, priority 2016, dated 2019).
Structures can show the parent of a compound that is named as a salt.

Target: PI3Kγ (p110γ) Recombinant Human Protein (Homo sapiens (Human), UniProt P48736)
Test: PI3K-γ Scintillation Proximity Assay
Format: biochemical
Conditions: read-out: PI3Kγ IC50
Procedure: [γ-^33P]ATP (10 mCi/mL) and Wheat Germ Agglutinin (WGA) YSi SPA Scintillation Beads was purchased from Perkin-Elmer (Waltham, Mass.). […] PI3Kγ (p110γ) Recombinant Human Protein was purchased from Life technology (Grand Island, N.Y.). ATP, MgCl2, DTT, EDTA, MOPS and CHAPS were purchased from Sigma-Aldrich (St. Louis, Mo.).
The kinase reaction was conducted in polystyrene 384-well Greiner Bio-one white plate from Thermo Fisher Scientific in a final volume of 25 μL. Inhibitors were first diluted serially in DMSO and added to the plate wells before the addition of other reaction components. The final concentration of DMSO in the assay was 2%. The PI3Kγ assay was carried out at room temperature in 20 mM MOPS, pH 6.7, 10 mM MgCl2, 5 mM DTT and CHAPS 0.03%. Reactions were initiated by the addition of ATP, the final reaction mixture consisted of 20 μM PIP2, 2 μM ATP, 0.5 μCi [γ-^33P] […] The final concentration of SPA beads is 1.0 mg/mL. After the plate sealing, plates were shaken overnight at room temperature and centrifuged at 1500 rpm for 10 min, the radioactivity of the product was determined by scintillation counting on Topcount (Perkin-Elmer). IC50 determination was performed by fitting the curve of percent of the solvent control activity versus the log of the inhibitor concentration using the GraphPad Prism 6.0 software.

Sequence of PI3Kγ (p110γ) Recombinant Human Protein (P48736 whole entry): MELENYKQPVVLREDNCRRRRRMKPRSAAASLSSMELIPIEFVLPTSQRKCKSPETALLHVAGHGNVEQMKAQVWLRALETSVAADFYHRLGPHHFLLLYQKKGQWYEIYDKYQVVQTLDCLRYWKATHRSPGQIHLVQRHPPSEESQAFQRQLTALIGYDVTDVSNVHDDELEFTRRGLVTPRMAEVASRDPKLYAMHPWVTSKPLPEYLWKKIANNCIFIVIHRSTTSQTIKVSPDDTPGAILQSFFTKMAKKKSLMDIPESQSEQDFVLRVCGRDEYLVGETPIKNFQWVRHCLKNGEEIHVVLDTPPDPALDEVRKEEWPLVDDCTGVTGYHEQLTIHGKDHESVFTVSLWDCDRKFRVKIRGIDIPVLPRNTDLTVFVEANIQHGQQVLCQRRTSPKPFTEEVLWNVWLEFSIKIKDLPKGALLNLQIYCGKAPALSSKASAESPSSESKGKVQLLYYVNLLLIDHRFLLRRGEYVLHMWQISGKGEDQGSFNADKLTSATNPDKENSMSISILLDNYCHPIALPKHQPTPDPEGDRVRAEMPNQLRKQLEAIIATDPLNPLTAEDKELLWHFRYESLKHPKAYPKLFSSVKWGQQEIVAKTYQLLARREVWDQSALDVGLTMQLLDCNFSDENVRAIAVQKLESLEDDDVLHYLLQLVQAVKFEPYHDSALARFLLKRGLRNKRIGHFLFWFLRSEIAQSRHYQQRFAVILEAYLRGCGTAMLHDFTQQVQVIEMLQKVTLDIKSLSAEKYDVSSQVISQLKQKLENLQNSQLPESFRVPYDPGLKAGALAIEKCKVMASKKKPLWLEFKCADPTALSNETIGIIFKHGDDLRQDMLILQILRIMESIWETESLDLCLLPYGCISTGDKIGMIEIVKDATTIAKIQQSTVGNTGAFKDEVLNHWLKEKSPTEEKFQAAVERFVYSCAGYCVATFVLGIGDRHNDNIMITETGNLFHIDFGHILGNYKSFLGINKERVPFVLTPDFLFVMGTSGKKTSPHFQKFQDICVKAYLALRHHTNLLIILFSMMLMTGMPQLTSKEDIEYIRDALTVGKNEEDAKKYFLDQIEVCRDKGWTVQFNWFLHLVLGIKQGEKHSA

| IC50 [nM] | Compound |
| --- | --- |
| < 100 | Cc1nc(CNS(=O)(=O)c2ccc(C)c(-c3cnc4c(N)ncnn34)c2)no1 [Example 237, 3-(4-aminoimidazo[2,1-f][1,2,4]triazin-7-yl)-4-methyl-N-((5-methyl-1,2,4-oxadiazol-3-yl)methyl)benzenesulfonamide] |
| < 100 | Cc1ccc(S(=O)(=O)Nc2ccc(C(=O)N3CC(O)C3)nc2)cc1-c1cnc2c(N)ncnn12 [Example 242, 3-(4-aminoimidazo[2,1-f][1,2,4]triazin-7-yl)-N-(6-(3-hydroxyazetidine-1-carbonyl)pyridin-3-yl)-4-methylbenzenesulfonamide] |
| < 100 | CC(=O)NC1CCN(S(=O)(=O)c2ccc(C)c(-c3cnc4c(N)ncnn34)c2)CC1 [Example 226, N-(1-((3-(4-aminoimidazo[2,1-f][1,2,4]triazin-7-yl)-4-methylphenyl)sulfonyl)piperidin-4-yl)acetamide] |
| < 100 | Cc1ccc(S(C)(=O)=O)cc1-c1cnc2c(N)nc(C3CCOCC3)cn12 [Example 536, 3-(2-Methyl-5-(methylsulfonyl)phenyl)-6-(tetrahydro-2H-pyran-4-yl)imidazo[1,2-a]pyrazin-8-amine trifluoroacetate] |
| < 100 | Cc1ccc(S(=O)(=O)NCc2cnccn2)cc1-c1cnc2c(N)ncnn12 [Example 233, 3-(4-aminoimidazo[2,1-f][1,2,4]triazin-7-yl)-4-methyl-N-(pyrazin-2-ylmethyl)benzenesulfonamide] |
| < 100 | Cc1ccc(S(=O)(=O)NC23CCCC(C(C)O)(C2)C3)cc1-c1cnc2c(N)ncnn12 (centres unmarked) [Example 521, 3-(4-aminoimidazo[2,1-f][1,2,4]triazin-7-yl)-N-(5-(1-hydroxyethyl)bicyclo[3.1. 1]heptan-1-yl)-4-methylbenzenesulfonamide trifluoroacetate] |
| < 100 | Cc1ccc(S(=O)(=O)N2CCC(C#N)CC2)cc1-c1cnc2c(N)ncnn12 [Example 217, 1-((3-(4-aminoimidazo[2,1-f][1,2,4]triazin-7-yl)-4-methylphenyl)sulfonyl)piperidine-4-carbonitrile] |
| < 100 | Cc1ccc(S(=O)(=O)N2CCN(c3ccc(C#N)cn3)CC2)cc1-c1cnc2c(N)ncnn12 [Example 232, 6-(4-((3-(4-aminoimidazo[2,1-f][1,2,4]triazin-7-yl)-4-methylphenyl)sulfonyl)piperazin-1-yl)nicotinonitrile] |
| < 100 | Cc1ccc(S(=O)(=O)Nc2c(C)nn(C)c2C)cc1-c1cnc2c(N)ncnn12 [Example 214, 3-(4-Aminoimidazo[2,1-f][1,2,4]triazin-7-yl)-4-methyl-N-(1,3,5-trimethyl-1H-pyrazol-4-yl)benzenesulfonamide] |
| < 100 | Cc1ccc(S(=O)(=O)NCc2ccnn2C)cc1-c1cnc2c(N)nc(C(F)(F)F)nn12 [Example 357, 3-(4-amino-2-(trifluoromethyl)imidazo[2,1-f][1,2,4]triazin-7-yl)-4-methyl-N-((1-methyl-1H-pyrazol-5-yl)methyl)benzenesulfonamide] |
| 100 to 500 | Cc1ccc(S(=O)(=O)NC2(C)CCN(C3CCOC3)CC2)cc1-c1cnc2c(N)nc(C(F)(F)F)nn12 (centres unmarked) [Example 530, 3-(4-Amino-2-(trifluoromethyl)imidazo[2,1-f][1,2,4]triazin-7-yl)-4-methyl-N-(4-methyl-1-(tetrahydrofuran-3-yl)piperidin-4-yl)benzenesulfonamide trifluoroacetate] |
| < 100 | Cc1ccc(S(=O)(=O)NC2(C)CCCN(C(C)C)C2)cc1-c1cnc2c(N)nc(C(F)(F)F)nn12 (centres unmarked) [Example 527, 3-(4-Amino-2-(trifluoromethyl)imidazo[2,1-f][1,2,4]triazin-7-yl)-N-(1-isopropyl-3-methylpiperidin-3-yl)-4-methylbenzenesulfonamide trifluoroacetate] |
| < 100 | Cc1ccc(S(=O)(=O)NC2(C)CN(C)C2)cc1-c1cnc2c(N)nc(C(F)(F)F)nn12 [Example 532, 3-(4-Amino-2-(trifluoromethyl)imidazo[2,1-f][1,2,4]triazin-7-yl)-N-(1,3-dimethylazetidin-3-yl)-4-methylbenzenesulfonamide] |
| < 100 | Cc1ccc(S(=O)(=O)N2CCc3nn(C)cc3C2)cc1-c1cnc2c(N)ncnn12 [Example 225, 7-(2-methyl-5-((2-methyl-2,4,6,7-tetrahydro-5H-pyrazolo[4,3-c]pyridin-5-yl)sulfonyl)phenyl)imidazo[2,1-f][1,2,4]triazin-4-amine] |
| < 100 | Cc1ccc(S(=O)(=O)N2CCCC(C(F)(F)F)C2)cc1-c1cnc2c(N)ncnn12 (centres unmarked) [Example 218, 7-(2-methyl-5-((3-(trifluoromethyl)piperidin-1-yl)sulfonyl)phenyl)imidazo[2,1-f][1,2,4]triazin-4-amine] |

More lines, now with the values behind:

| Compound | IC50 [nM] |
| --- | --- |
| Cc1ccc(S(=O)(=O)N2CCc3nc[nH]c3C2)cc1-c1cnc2c(N)ncnn12 [Example 224, 7-(2-methyl-5-((3,4,6,7-tetrahydro-5H-imidazo[4,5-c]pyridin-5-yl)sulfonyl)phenyl)imidazo[2,1-f][1,2,4]triazin-4-amine] | < 100 |
| CC(=O)Nc1ccc(NS(=O)(=O)c2ccc(C)c(-c3cnc4c(N)ncnn34)c2)cn1 [Example 244, N-(5-((3-(4-aminoimidazo[2,1-f][1,2,4]triazin-7-yl)-4-methylphenyl)sulfonamido)pyridin-2-yl)acetamide] | < 100 |
| Cc1ccc(S(=O)(=O)NC23CC(CN(C)C2)C3)cc1-c1cnc2c(N)ncnn12 [Example 523, 3-(4-Aminoimidazo[2,1-f][1,2,4]triazin-7-yl)-4-methyl-N-(3-methyl-3-azabicyclo[3.1.1]heptan-1-yl)benzenesulfonamide trifluoroacetate] | < 100 |
| Cc1ccc(S(=O)(=O)N2CCn3cnnc3C2C)cc1-c1cnc2c(N)ncnn12 (centres unmarked) [Example 222, 7-(2-methyl-5-((8-methyl-5,6-dihydro-[1,2,4]triazolo[4,3-a]pyrazin-7(8H)-yl)sulfonyl)phenyl)imidazo[2,1-f][1,2,4]triazin-4-amine] | < 100 |
| Cc1ccc(S(=O)(=O)NCc2cccc(C(F)(F)F)n2)cc1-c1cnc2c(N)ncnn12 [Example 235, 3-(4-aminoimidazo[2,1-f][1,2,4]triazin-7-yl)-4-methyl-N-((6-(trifluoromethyl)pyridin-2-yl)methyl)benzenesulfonamide] | < 100 |
| Cc1ccc(S(=O)(=O)NC2(C)CCN(C)CC2)cc1-c1cnc2c(N)nc(C(F)(F)F)nn12 [Example 528, 3-(4-Amino-2-(trifluoromethyl)imidazo[2,1-f][1,2,4]triazin-7-yl)-N-(1,4-dimethylpiperidin-4-yl)-4-methylbenzenesulfonamide trifluoroacetate] | < 100 |
| Cc1ccc(S(=O)(=O)NC23C4C5C2C2C3C4C52C#N)cc1-c1cnc2c(N)ncnn12 (centres unmarked) [Example 534, 3-(4-Aminoimidazo[2,1-f][1,2,4]triazin-7-yl)-N-(4-cyanocuban-1-yl)-4-methylbenzenesulfonamide trifluoroacetate] | < 100 |
| Cc1ccc(S(=O)(=O)NC23CC(CN(C4CCC4)C2)C3)cc1-c1cnc2c(N)ncnn12 [Example 525, 3-(4-Aminoimidazo[2,1-f][1,2,4]triazin-7-yl)-N-(3-cyclobutyl-3-azabicyclo[3.1.1]heptan-1-yl)-4-methylbenzenesulfonamide trifluoroacetate] | 100 to 500 |
| Cc1ccc(S(=O)(=O)N2C3CC4CC2CC(C3)O4)cc1-c1cnc2c(N)ncnn12 [Example 221, 7-(5-((-2-oxa-6-azaadamantan-6-yl)sulfonyl)-2-methylphenyl)imidazo[2,1-f][1,2,4]triazin-4-amine] | < 100 |
| Cc1ccc(S(=O)(=O)Nc2cc3cn[nH]c3cn2)cc1-c1cnc2c(N)ncnn12 [Example 243, 3-(4-aminoimidazo[2,1-f][1,2,4]triazin-7-yl)-4-methyl-N-(1H-pyrazolo[3,4-c]pyridin-5-yl)benzenesulfonamide] | < 100 |
| Cc1ccc(S(=O)(=O)NC23CCCC(C#N)(C2)C3)cc1-c1cnc2c(N)ncnn12 [Example 520, 3-(4-Aminoimidazo[2,1-f][1,2,4]triazin-7-yl)-N-(5-cyanobicyclo[3.1.1]heptan-1-yl)-4-methylbenzenesulfonamide trifluoroacetate] | < 100 |
| COc1ccc(NS(=O)(=O)c2ccc(C)c(-c3cnc4c(N)ncnn34)c2)c(C)n1 [Example 246, 3-(4-aminoimidazo[2,1-f][1,2,4]triazin-7-yl)-N-(6-methoxy-2-methylpyridin-3-yl)-4-methylbenzenesulfonamide] | < 100 |
| Cc1ccc(S(=O)(=O)NC23CCCC(C(C)N4CC(C#N)C4)(C2)C3)cc1-c1cnc2c(N)ncnn12 (centres unmarked) [Example 522, 3-(4-Aminoimidazo[2,1-f][1,2,4]triazin-7-yl)-N-(5-(1-(3-cyanoazetidin-1-yl)ethyl)bicyclo[3.1.1]heptan-1-yl)-4-methylbenzenesulfonamide trifluoroacetate] | < 100 |
| Cc1ccc(S(=O)(=O)N2CC(C3CCOC3)C2)cc1-c1cnc2c(N)ncnn12 (centres unmarked) [Example 219, 7-(2-methyl-5-((3-(tetrahydrofuran-3-yl)azetidin-1-yl)sulfonyl)phenyl)imidazo[2,1-f][1,2,4]triazin-4-amine] | 100 to 500 |
